In patent publication EP0119449A1, “Aminopyrazoline derivatives” (THE WELLCOME FOUNDATION LIMITED, priority 1983, dated 1984):
Counter-ions that a name gives are not always drawn.

How the values were obtained:
[1] = system: Prostaglandin E2 concentrations in sponge exudates; assay: Prostaglandin synthesis in carrageenin sponge inflammatory exudate; assay type: in vivo; conditions: Rattus norvegicus, po; male rats, sponges impregnated with 2% carrageenin, exudates collected 24 hours after implantation; read-out: ED50 (mg/kg p.o.) Prostaglandin Production (rat)
Procedure: (§1) The compound of Example 1 was subjected to the following tests. Results are given in Table II as ED50 mg/kg upon oral administration. Results are also provided by way of comparison for the compound 3-methylamino-1-(3-trifluoromethylphenyl)-2-pyrazoline (Compound A) which is disclosed in European Specification 55 418.
(§2) Inflammatory exudates were collected 24 hours after the subcutaneous implantation in male rats (180-220g) of sterile polyester sponges impregnated with 2% carrageenin. Prostaglandin E2 concentrations in sponge exudates were measured by bioassay and total leucocyte numbers were estimated using counting chambers and phase contrast microscopy. Drugs were administered orally in aqueous solution to groups of five animals at the time of sponge implantation, 5-8 hours later and 3 hours before sponge removal. Results are expressed as a percentage of control values obtained from similar groups of animals receiving vehicle alone. ED50 values were calculated for active compounds. The full dose-response data for lead compounds were subjected to regression analysis and ED50 values with 95% confidence limits have been obtained.

[2] = system: Carrageenin Oedema; assay: Carrageenin-induced hind paw oedema; assay type: in vivo; conditions: Rattus norvegicus, po; female rats, sub-plantar 2% carrageenin, swelling measured 1-4 hours after injection
Procedure: as §1
Oedema was induced by the sub-plantar injection of 2% carrageenin (0.1 ml) in the hind paws of female rats (100-i30g). Swelling was measured 1-4 hours following carrageenin injection using a micrometer gauge. Drugs in aqueous solution were administered orally to groups of five rats at the time of carrageenin injection. Mean swelling was expressed as a percentage of control values obtained from similar groups of animals receiving vehicle alone.

[3] = system: total leucocyte numbers; assay: Leucocyte accumulation in carrageenin sponge inflammatory exudate; assay type: in vivo; conditions: Rattus norvegicus, po, male rats, sponges impregnated with 2% carrageenin, exudates collected 24 hours after implantation, read-out: ED50 (mg/kg p.o.) Leucocyte Migration (rat)
Procedure: as §1, §2

[4] = system: PBQ Writhing; assay: Phenylbenzoquinone (PBQ) induced writhing (pain); assay type: in vivo; conditions: Mus musculus, po; p.o. 1 hour before PBQ 2.5 mg/kg i.p.; female mice
Procedure: as §1
Writhing was induced in groups of 5 female mice (20-25g) following the intraperitoneal injection of phenylbenzoquinone (PBQ; 2.5 mg/kg). Anti-nociceptive effects of drugs were assessed by observing the reduction in writhing responses 10-12½ min after PBQ injection. Drugs were administered orally in aqueous solution 1 hour before PBQ injection and drug effects were expressed as a percentage of control values obtained from animals receiving vehicle alone.

[5] = molecular target: Cyclooxygenase; assay: Enzyme assay, inhibition of cyclooxygenase (method closely based on Borgeat et al); assay type: biochemical
[6] = Toxicity: ulcerogenicity; assay type: in vivo; conditions: rat, doses in the range 50-100 mg/kg

IC50 [5] | SMILES | ED50 [1] | ED50 [2] | ED50 [3] | ED50 [4] | ulcerogenic [6]
– | CNC1=NN(c2cccc(C(F)(F)F)c2)CC1 [Compound A, 3-methylamino-1-(3-trifluoromethylphenyl)-2-pyrazoline, reference compound] | 20 mg/kg | 26 mg/kg | 20 mg/kg | 20 mg/kg | –
4.7 µM | CSc1cccc(N2CCC(N)=N2)c1 [Example 1, 3-amino-1-(3-methylthiophenyl)-2-pyrazoline] | 14 mg/kg | 20 mg/kg | 6.5 mg/kg | 15 mg/kg | not to be ulcerogenic
10 µM | CNC1=NN(c2cccc(SC)c2)CC1 [Example 3, 3-methylamino-1-(3-methylthiophenyl)-2-pyrazoline hydrobromide] | – | – | – | – | –
> 1 µM | C#CCNC1=NN(c2cccc(SC)c2)CC1 [Example 7, 1-(3-Methylthiophenyl)-3-(2-propynylamino)-2-pyrazoline hydrochloride] | – | – | – | – | –
